Experimental findings from a melting point compilation (Tetko et al.; mined from patent text by program, amines drawn as free bases though some values may be those of a salt) are described below.

What is called melting point is the temperature of the solid-liquid transition. `O=C(SC(SC(=O)c1ccccc1)C(=O)O)c1ccccc1`: the melting point was 82 to 83 °C. The same measure for `CC(=O)NC1CCN(c2c(F)cc([N+](=O)[O-])c(F)c2CO)C1` (centres undefined): 142 to 144 °C; for `CCOC(=O)c1cccc(C=C(C(=O)O)c2ccccc2)c1`: 139 to 140 °C. The same measure for `COC(=O)C(=O)c1ccc(OCCOc2ccc(OC)cc2)cc1`: 114 to 115 °C. With `CNc1cc(NS(=O)(=O)c2ccc(N)cc2)nc(N2CCCC2)n1` the figure was 299 to 301 °C; with `CCOC(=O)c1cn(Cc2ccccc2)nc1OCc1ccc(OCc2nc(-c3ccco3)oc2C)cc1OC`, 137 to 138 °C; with `COCCOc1cc2c(cc1-c1ccccc1F)NC(=O)CC(c1cccc(C#N)c1)=N2`, 211 to 213 °C. As for `N#Cc1cccc2c1CCCc1ccccc1-2`, the melting point was 109 to 111 °C. Consider `COc1ccc(CNC(=O)c2c(C)c([N+](=O)[O-])cc3nc(OC)c(OC)nc23)cc1`, for which the melting point is 187 to 189 °C. In the case of `CC(C)CC1(C(CC(C)Sc2cccs2)C(=O)NO)CCN(CCc2ccccc2)C1=O` (centres undefined), the melting point was in the range of 104 to 105 °C. With `Cc1c(C(C)F)nc[nH]c1=O` (centres undefined) the figure was 108 to 109 °C; with `O=C1C=C(Br)C(=O)c2ccccc21`, 130 to 132 °C; with `CN1Cc2c(c3cc(CCCN4CCN(c5nsc6ccccc56)CC4)ccc3[nH]c2=O)C1`, 206 to 208 °C.

The molecule `CC(=O)NCc1ccc(C#Cc2ccc3c(c2)C(C)(C)CCC3(C)C)cc1` registered a melting point of 220 to 223 °C. In turn, `O=C1C(=Cc2ccc(-c3cccs3)s2)CCc2cc(OCCn3ccnc3)ccc21` yielded a melting point of 180 to 181 °C. The same measure for `COC(=O)c1nc2cc(I)ccc2c(O)c1C(=O)OC`: 243 to 244 °C. With `CC(C)(C)CC(NC(=O)c1cccc(Cl)c1)Nc1c(Nc2cccnc2)c(=O)c1=O` (centres undefined) the figure was 238 to 239 °C. `Cc1c(C)c2ccc(OCCCc3ccccc3)cc2oc1=O` showed a melting point of 104 °C.

Regarding `Clc1cccc2c1CCCC2c1c[nH]cn1` (centres undefined), the melting point was in the range of 165 to 169 °C. Molecule `COC(=O)[C@H](CC(=O)OC(C)(C)C)NC(=O)c1cccc(NC(=O)OCc2ccccc2)c1` showed a melting point of 115 to 116 °C. With `COc1ccc2c(c1Br)CCC1CN(C)CC21` (centres undefined) the figure was 144 to 146 °C; with `CCCCCCCCCCCCc1c(C)[nH]c(C(=O)OCC)c1C`, 65 to 67 °C. With `CCCCS(=O)(=O)N(C(=O)OC(C)(C)C)c1cc(OC[C@@H]2CO2)ccc1OCc1ccccc1` the figure was 87 to 89 °C.

On to `CCNCC(=O)Nc1cc(NS(C)(=O)=O)c(Oc2ccccc2)cc1[N+](=O)[O-]`, for which the melting point lay within 156 to 157 °C.

On to `COC(=O)c1c(Oc2cccc(C)c2C)nn(C(=O)OC)c1C`, for which the melting point stood at 115 °C. With `O=C(O)c1c(CNS(=O)(=O)c2cccc(Cl)c2)nn(-c2ccc(Cl)cc2Cl)c1-c1ccc(Cl)cc1` the figure was 211 °C; with `C=C1c2ccccc2C=Cn2c(OC)nnc21`, 160 to 161 °C; with `COc1ccc(-c2ccc(Cl)c(C(=O)NCC34CC5CC(CC(C5)C3)C4)c2)c(C(=O)O)c1`, 219 to 221 °C. With `CCOC(=O)c1ncn2c1CN(Cc1ccc(OC)cc1OC)C(=O)c1c(Cl)cccc1-2` the figure was 129 to 130 °C. The same measure for `COc1ccc(CN(C)C(=O)CCCc2ccc([N+](=O)[O-])cc2)cc1OC`: 90 °C; for `O=C(O)CCCCCCCCc1cccs1`: 32 to 33 °C.

Molecule `O=C(CCc1ccsc1)CC(=O)N1CCOCC1` had a melting point of 81 to 84 °C. With `CNC(=O)c1ccccc1Sc1ccc(F)cc1[N+](=O)[O-]` the figure was 111 to 113 °C. With `CC1=C(C(=O)OCCCl)C(c2cccc3c(=O)c(C)c(-c4ccccc4)oc23)C(C(=O)OC(C)C)=C(C)N1` (centres undefined) the figure was 235 to 237 °C. With `Cc1ccc(C)c(C(=O)c2c(S(C)(=O)=O)nn(-c3c(Cl)cc(C(F)(F)F)cc3Cl)c2N)c1` the figure was 194 °C; with `CCCCC(Cc1ccc(OCCNC(=O)c2ccc(-c3ccc(C=O)cc3)cc2)cc1)C(=O)O` (centres undefined), 122 to 124 °C. `O=C(COCc1ccccc1)Nc1ccc(OC(=O)COCc2ccccc2)cc1` gave a melting point of 55.5 to 58.5 °C. In turn, `COc1ccc(COC(=O)C2N=CSCC2(C)O)cc1` (centres undefined) displayed a melting point of 102 to 103 °C. `CCc1ncc(CCCOc2c(C)cc(-c3noc(C(F)(F)F)n3)cc2C)s1` displayed a melting point of 57 to 59 °C. The same measure for `Cc1c(NC(=O)c2ccc(-c3ccc(F)cc3)cc2)ccc2cc(CN3CCC(CC(=O)N4CCCCC4)CC3)cnc12`: 189 to 190 °C; for `CNC(=S)C1=CC(C)(C(F)(F)F)Oc2ccc([N+](=O)[O-])cc21` (centres undefined): 158 to 160 °C; for `O=C(/C=C/[C@H]1CC[C@@H]2OC(=O)C[C@@H]21)COc1ccccc1`: 91 °C. The same measure for `CS(=O)c1nnc2n1C=Cc1cc(Cl)ccc1C2` (centres undefined): 183 to 185 °C; for `O=C(CCc1ccccc1)Oc1n[nH]c(=O)c2nc3cc(Cl)ccc3c(O)c12`: above 300 °C; for `O=C1c2ccccc2C(=O)N1OCn1ccnc1`: 158 to 160 °C.

As to `COCCc1ccc(OCC(O)C(C)(C)[N+](=O)[O-])cc1` (centres undefined), the melting point lay in the range of 92 to 94 °C. The same measure for `COc1cc(NC(=O)c2ccccc2Cl)ccc1C(=O)N1CCCC(OCCNC(N)=O)c2cc(Cl)ccc21` (centres undefined): 206 to 207 °C; for `Cc1sc(CCc2ccc(C=CC=O)cc2)nc1-c1ccccc1`: 94 to 95 °C. For `Oc1ccc2cc(-c3nc(-c4ccccc4)sc3Br)ccc2c1Br`, the melting point was 198 to 200 °C.

The molecule `Cc1nnc(SCc2ccc(C(=O)N(C)C)cc2)s1` returned a melting point of 75 to 80 °C. With `C#CC(C)(C)OC(=O)Nc1ccc(-c2ncn(-c3ccc(C(F)(F)F)cc3)n2)cc1` the figure was 187 to 189 °C.

The molecule `CNC(=O)CC1c2cc(C#N)ccc2OC(C)(C)C1O` (centres undefined) yielded a melting point of 141 to 142 °C. With `CCCCCCCCCCCCCCCCCCNCC(O)COc1ccc(Nc2ccccc2)cc1` (centres undefined) the figure was 81 to 86 °C; with `COc1cc2ccccc2cc1NC(=O)N1CCN(c2cc(F)cc(F)c2)CC1`, 160 to 161 °C; with `CC1=C(c2ccnc3ccccc23)SCC(=O)N1`, 174 to 176 °C.

Turning to `COc1ccc(-c2cc(=Nc3c(C)cc(C)cc3C)n(C)c(Cl)n2)cc1OC`, the melting point was in the range of 159 to 162 °C. The same measure for `CN(C(=O)OC(C)(C)C)C1CC=C(c2c[nH]c3cc([N+](=O)[O-])ccc23)CC1` (centres undefined): 208 to 210 °C. The same measure for `CCCc1c(OCCCC#CC(=O)O)ccc(C(C)=O)c1O`: 115 to 116 °C. The same measure for `CCCc1c(OCc2ccccc2C(=O)OC)ccc(C(C)=O)c1O`: 90 to 93 °C; for `CCCc1nc2c(N)nc3cc(OCc4cscn4)ccc3c2s1`: 218 to 220 °C. Turning to `CN1C(=O)CC[C@]2(C)c3ccc(-c4ccc([N+](=O)[O-])cc4)cc3CC[C@@H]12`, the melting point was 59 to 60 °C. Take `CCOC(=O)c1ncn2c1[C@@H]1CCCN1C(=O)c1ccccc1-2`: the melting point is 196 to 197 °C.

The molecule `CNCCN1CCn2c1nc1ccccc12` displayed a melting point of 60 to 63 °C.

Turning to `CC1c2cc(OCC(=O)O)c(Cl)c(Cl)c2C(=O)C1(C)Cl` (centres undefined), the melting point was in the range of 179 to 187 °C.

`COc1ccc2nc(COc3ccc(CC(SC)C(N)=O)cc3)n(C)c2c1` (centres undefined) registered a melting point of 188 to 190 °C.

Consider `Cc1cc(S(F)(F)(F)(F)F)ccc1N`, for which the melting point is 65 to 66 °C. As to `CCC(C)OC1OCC(O)(N(CC(C)C)C(=O)N(CCCl)N=O)C(O)C1O` (centres undefined), the melting point lay within 63 to 65 °C. The same measure for `CCOC(=O)C1=C(N)NC(N)=C(C(=O)OCC)C1c1cccc(C(F)(F)F)c1`: 170 °C; for `N#Cc1c[nH]cc1-c1cccc2c1OCO2`: 206 to 208 °C; for `Cc1ccnc2nc(NS(=O)(=O)c3ccccc3Cl)nn12`: 268 to 269 °C. With `COC(=O)[C@@H]1C[C@H]1C(=O)O` (relative stereo) the figure was 46 to 47 °C; with `COC(=O)c1ccccc1Oc1nc(Oc2ccccc2C(=O)OC)nc(Oc2ccccc2C(=O)OC)n1`, 58 to 63 °C. The same measure for `O=C(Nc1ccc(F)cc1)c1ccccc1SSc1ccccc1C(=O)Nc1ccc(F)cc1`: 242 to 244 °C. Regarding `Cc1cn(C(C)(C)C(=O)N(C)C)nc1-c1cc(Cl)ccc1Cl`, the melting point is 130 °C. The same measure for `CCCCn1c(=O)c(NC(=O)Nc2cc(CO)ccc2C(C)(C)C)c(-c2cccc(OCc3cccnc3)c2)c2cccnc21`: 149 to 150 °C. The same measure for `COc1ccc(OC)c2nc(Cl)c(C=O)cc12`: 177 to 178 °C. With `O=C(Cn1nnnc1-c1cc2ccccc2o1)OCCO` the figure was 131 to 135 °C; with `Cc1cc(-c2ccc(Cl)cc2)cn2c(-c3nc(-c4ccc(S(N)(=O)=O)cc4)no3)cnc12`, 311 °C; with `CCCCCCCCC1C(=O)NC(=O)N1CCCCCCC(=O)O` (centres undefined), 65 to 66 °C. For the molecule `CCCCOc1cc(O)c(C#N)s1`, the melting point came to 107 °C. The same measure for `CCOC(=O)c1cc(C)nc2sc(C(N)=O)c(N)c12`: 205 to 208 °C; for `CC1(O)OC(=O)C=C1c1ccccc1` (centres undefined): 105 to 107 °C.

Regarding `O=[N+]([O-])c1ccc(I)c(-c2cc([N+](=O)[O-])ccc2I)c1`, the melting point was 230 to 232 °C.

`O=C1Nc2ccncc2C(c2ccccc2)N1C1CCN(Cc2ccccc2)CC1` (centres undefined) gave a melting point of 209 to 210 °C. The same measure for `O=C(O)Cc1ccc(C(=O)C2CCCCC2)cc1`: 94 to 95.5 °C. The same measure for `CCCCCCCCC[C@]1(C)OO[C@@H]2C[C@H]1CC(=O)[C@@H]2C`: 39 °C; for `CN(C)CCCCc1ccc(CO)o1`: 24 °C; for `COC(=O)C(C)(OCc1ccc2cc(OC)ccc2c1)C(F)(F)F` (centres undefined): 60 to 62 °C. With `CCCc1nc2c(N)nc(C)c(C)c2n1CCCCNC(C)=O` the figure was 200 to 201 °C.
